Test: Stability testing: contents of chlorhexidine gluconate (liquid chromatography) and isopropyl alcohol (gas chromatography) in the wet wipe, long-term experiment
Assay type: physicochemical
Experimental: The test was performed by chromatography. The content of chlorhexidine gluconate in the 2% chlorhexidine gluconate-isopropyl alcohol solution and the wet wipe was quantitatively detected by liquid chromatography. The content of isopropyl alcohol in the wet wipe was quantitatively detected by gas chromatography. In this test, the contents of chlorhexidine gluconate and isopropyl alcohol were used as evaluation indexes. The contents of chlorhexidine gluconate and isopropyl alcohol were measured by a long-term experiment. Relative standard deviation (RSD) was used to determine the stability of the contents of chlorhexidine gluconate and isopropyl alcohol in the chlorhexidine gluconate-isopropyl alcohol wet wipe. The contents were respectively measured at Month 0, Month 1, Month 3, Month 6, Month 9, Month 12, Month 18 and Month 24. Based on the content at Month 0 (100%), the ratio of the content at the subsequent time points to the content at Month 0 was calculated respectively, as shown in Table 1.

| SMILES | ratio of the content to the content at Month 0 (Month 0 (set as 100%)) [%] | ratio of the content to the content at Month 0 (Month 3) [%] | ratio of the content to the content at Month 0 (Month 6) [%] | ratio of the content to the content at Month 0 (Month 9) [%] | ratio of the content to the content at Month 0 (Month 12) [%] | ratio of the content to the content at Month 0 (Month 18) [%] | ratio of the content to the content at Month 0 (Month 24) |
| --- | --- | --- | --- | --- | --- | --- | --- |
| N=C(NCCCCCCNC(=N)NC(=N)Nc1ccc(Cl)cc1)NC(=N)Nc1ccc(Cl)cc1.O=C(O)[C@H](O)[C@@H](O)[C@H](O)[C@H](O)CO.O=C(O)[C@H](O)[C@@H](O)[C@H](O)[C@H](O)CO [Chlorhexidine gluconate] | 100 | 100 | 100 | 100 | 100 | 100 | 106.2%^ |
| CC(C)O [Isopropyl alcohol] | 100 | 97.5 | 100.8 | 100 | 99.2 | 100.8 | 102.5% |

— patent US20250064699A1, “CHLORHEXIDINE GLUCONATE-ISOPROPYL ALCOHOL WET WIPE PRODUCT AND PREPARATION METHOD THEREOF” (Dukal, LLC, priority 2021, published 2025)
